Data on eight compounds can be found in paper PMC10052868 (European journal of medicinal chemistry, 2022).

The test system of data set [1] is P. falciparum 3D7. Briefly: P. falciparum asexual blood stage viability assay. It is filed as cell-based. As to conditions: for fold improvement in P. falciparum blood stage potency on adding CF3 or OCF3: compared to parent compound without meta group (64, 66, 67 or 68).
Data set [2] concerns the target PfPK6 (Plasmodium falciparum, UniProt Q8IDW1). Briefly: KinaseSeeker split-luciferase assay on PfPK6. As to conditions: for remaining activity at 1 µM: read-out: PfPK6 activity remaining at 1 μM (%). It is filed as binding, P. falciparum.
In data set [3] the target is PfGSK3 (Plasmodium falciparum, UniProt O77344). Description: KinaseSeeker assay on PfGSK3. Type of data set: binding, P. falciparum.
Data set [4] concerns the target PfCDPK5 (Plasmodium falciparum, UniProt A0A5K1K8H0). Description: KinaseSeeker assay on PfCDPK5. Type of data set: binding, P. falciparum.
The subject of data set [5] is panel of 468 kinases (403 non-mutant kinases). Type of data set: binding, human. As to conditions: for number of non-mutant kinases inhibited with ≤1% control: 1 μM, out of 403 non-mutant kinases.
Data set [6] deals with T1, PfNEK3 (Plasmodium falciparum, UniProt Q8I629).
T1 sequence (Q8I629 1-347): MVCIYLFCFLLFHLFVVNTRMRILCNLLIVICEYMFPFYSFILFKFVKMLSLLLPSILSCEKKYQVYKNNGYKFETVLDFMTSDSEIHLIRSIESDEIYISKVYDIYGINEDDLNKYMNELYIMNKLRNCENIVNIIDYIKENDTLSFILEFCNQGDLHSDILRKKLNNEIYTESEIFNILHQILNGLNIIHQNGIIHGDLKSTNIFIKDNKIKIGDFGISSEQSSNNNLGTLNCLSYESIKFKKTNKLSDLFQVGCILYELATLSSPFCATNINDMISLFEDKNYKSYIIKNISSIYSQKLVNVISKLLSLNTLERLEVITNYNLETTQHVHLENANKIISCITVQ
Briefly: KinaseSeeker assay on PfNEK3. Type of data set: binding, P. falciparum.

Data set [7] has as its target PfPKB (Plasmodium falciparum, UniProt Q8I4W3). Description: KinaseSeeker assay on PfPKB. Type of data set: binding, P. falciparum.
Data set [8] deals with P. berghei ANKA. Briefly: P. berghei liver stage parasite load assay in HepG2 cells. It is filed as cell-based. As to conditions: for P. berghei liver stage activity in words: inactive = EC50 not reported because <5-fold difference between observed EC50 and HepG2 CellTiter-Fluor cytotoxicity; for fold difference between P. berghei EC50 and CellTiter-Fluor CC50: HepG2 host cells.

Data set [9] deals with PfNEK1. Description: KinaseSeeker assay on PfNEK1. It is filed as binding, P. falciparum. As to conditions: duplicate.
In data set [10] the test system is PfARK3. Briefly: KinaseSeeker assay on PfARK3. Type of data set: binding, P. falciparum. The settings on record: duplicate.
In data set [11] the test system is PfPK9. Briefly: KinaseSeeker assay on PfPK9. It is filed as binding, P. falciparum. As to conditions: duplicate.
Data set [12] deals with PfPK5 (Plasmodium falciparum, UniProt P61075). Briefly: KinaseSeeker assay on PfPK5. It is filed as binding, P. falciparum. As to conditions: read-out: PfPK5 % Activity remaining at 1 μM.
The subject of data set [13] is PfARK1. Briefly: KinaseSeeker assay on PfARK1. Type of data set: binding, P. falciparum. The settings on record: duplicate.
Where [14] appears, read: GE = −ΔΔG / Δ(no. of heavy atoms), PfPK6 inhibition.

Sequence of PfCDPK5 (A0A5K1K8H0 whole entry): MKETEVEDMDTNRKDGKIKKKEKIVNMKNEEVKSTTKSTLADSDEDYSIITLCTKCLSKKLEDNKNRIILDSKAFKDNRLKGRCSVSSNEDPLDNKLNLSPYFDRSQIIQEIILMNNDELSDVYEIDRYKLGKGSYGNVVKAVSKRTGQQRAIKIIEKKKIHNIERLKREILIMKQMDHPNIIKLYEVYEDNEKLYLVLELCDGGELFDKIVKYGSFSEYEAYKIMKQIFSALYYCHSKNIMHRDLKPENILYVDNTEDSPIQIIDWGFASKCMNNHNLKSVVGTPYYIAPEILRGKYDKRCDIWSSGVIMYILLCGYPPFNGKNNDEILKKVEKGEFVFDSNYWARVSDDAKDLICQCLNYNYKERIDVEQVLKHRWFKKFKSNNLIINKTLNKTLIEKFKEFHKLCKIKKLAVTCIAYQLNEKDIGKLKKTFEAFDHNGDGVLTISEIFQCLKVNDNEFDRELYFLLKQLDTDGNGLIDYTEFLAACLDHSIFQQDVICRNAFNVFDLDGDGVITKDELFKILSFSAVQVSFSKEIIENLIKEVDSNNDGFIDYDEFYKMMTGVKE
Sequence of PfPK5 (P61075 whole entry): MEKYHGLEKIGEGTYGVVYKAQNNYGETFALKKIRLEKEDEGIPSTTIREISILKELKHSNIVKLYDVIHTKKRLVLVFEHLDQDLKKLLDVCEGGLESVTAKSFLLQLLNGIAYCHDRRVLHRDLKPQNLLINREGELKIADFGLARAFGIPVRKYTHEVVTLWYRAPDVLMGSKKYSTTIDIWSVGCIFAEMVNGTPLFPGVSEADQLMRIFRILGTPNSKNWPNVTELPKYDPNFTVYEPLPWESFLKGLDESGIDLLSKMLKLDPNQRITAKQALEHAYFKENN

A word on the IC50: it is the point on the concentration scale where inhibition reaches its midpoint. `COc1cc2nccc(Oc3ccc(NC(=O)Nc4cc(C(F)(F)F)ccc4F)c(F)c3)c2cc1OC` [Compound 40, 1-(4-((6,7-dimethoxyquinolin-4-yl)oxy)-2-fluorophenyl)-3-(2-fluoro-5-(trifluoromethyl)phenyl)urea]: the “Pf3D7 blood stage activity in dose-response” value in data set [1] (Inactive = no inhibition when tested up to 5 μM in two experiments, dose-response) was “Inactive^d”. Besides, the IC50 in data set [2] was under 5 nM.
As to `COc1cc2nccc(Oc3ccc(NC(=O)Nc4ccc(CN5CCN(C)CC5)c(C(F)(F)F)c4)c(F)c3)c2cc1OC` [Compound 45, 1-(4-((6,7-dimethoxyquinolin-4-yl)oxy)-2-fluorophenyl)-3-(4-((4-methylpiperazin-1-yl)methyl)-3-(trifluoromethyl)phenyl)urea diformate], the IC50 in [3], in [4], in [6] and in data set [7] was 40 to 144 nM throughout. For the same compound, the “number of non-mutant kinases inhibited with ≤1% control” value in [5] came out at 134.
The remaining activity is the share of the control activity or signal that is left under treatment. In the case of `COc1cc2nccc(Oc3ccc(NC(=O)Nc4ccc(CC5CCNCC5)cc4)c(F)c3)c2cc1OC` [Compound 67, 1-(4-((6,7-dimethoxyquinolin-4-yl)oxy)-2-fluorophenyl)-3-(4-(piperidin-4-ylmethyl)phenyl)urea], in [8], the “P. berghei liver stage activity in words” value was “inactive^g”. For the same compound, in [9], the “PfNEK1 % Activity remaining at 1 μM” value stood at 100%. In addition, the “number of non-mutant kinases inhibited with ≤1% control” value in data set [5] was found to be 22. Moreover, the “PfARK3 % Activity remaining at 1 μM” value in data set [10] was found to be 100%. Moreover, the remaining activity at 1 µM in data set [2] came to 2%.
Regarding `COc1cc2nccc(Oc3ccc(NC(=O)Nc4ccc(C=C5CCNCC5)cc4)c(F)c3)c2cc1OC` [Compound 68, 1-(4-((6,7-dimethoxyquinolin-4-yl)oxy)-2-fluorophenyl)-3-(4-(piperidin-4-ylidenemethyl)phenyl)urea], in data set [8], the “fold difference between P. berghei EC50 and CellTiter-Fluor CC50” value worked out at 1.9 fold; the “P. berghei liver stage activity in words” value was “inactive^g”. In addition, the “PfPK9 % Activity remaining at 1 μM” value in [11] was 100%. In addition, the “fold improvement in P. falciparum blood stage inhibitory activity over 41” value in data set [1] (compared to 41) is reported as “approximately 4 fold”. The “PfNEK1 % Activity remaining at 1 μM” value in data set [9] was determined as 100%. In addition, the remaining activity at 1 µM in [12] came out at 100%. Also, in data set [10], the “PfARK3 % Activity remaining at 1 μM” value amounted to 100%. For the same compound, in [2], the remaining activity at 1 µM was found to be 1%.
For the compound `COc1cc2nccc(Oc3ccc(NC(=O)Nc4ccc(OC5CCN(C)CC5)c(C(F)(F)F)c4)c(F)c3)c2cc1OC` [Compound 75, 1-(4-((6,7-dimethoxyquinolin-4-yl)oxy)-2-fluorophenyl)-3-(4-((1-methylpiperidin-4-yl)oxy)-3-(trifluoromethyl)phenyl)urea], in data set [8], the “fold difference between P. berghei EC50 and CellTiter-Fluor CC50” value stood at 1.9 fold; the “P. berghei liver stage activity in words” value is “inactive^g”. Further, in data set [1], the “fold improvement in P. falciparum blood stage potency on adding CF3 or OCF3” value came out at 8 fold. In data set [9], the “PfNEK1 % Activity remaining at 1 μM” value worked out at 100%. Further, the remaining activity at 1 µM in data set [2] came out at 0%.
Consider `COc1cc2nccc(Oc3ccc(NC(=O)Nc4ccc(CC5CCNCC5)c(C(F)(F)F)c4)c(F)c3)c2cc1OC` [Compound 79, 1-(4-((6,7-dimethoxyquinolin-4-yl)oxy)-2-fluorophenyl)-3-(4-(piperidin-4-ylmethyl)-3-(trifluoromethyl)phenyl)urea], for which, in data set [9], the “PfNEK1 % Activity remaining at 1 μM” value is 100%. Besides, the “PfARK1 % Activity remaining at 1 μM” value in data set [13] was 100%. In addition, in [2], the IC50 is under 5 nM and the remaining activity at 1 µM was 1%.
In the case of `COc1cc2nccc(Oc3ccc(NC(=O)Nc4ccc(C=C5CCNCC5)c(OC(F)(F)F)c4)c(F)c3)c2cc1OC` [Compound 82, 1-(4-((6,7-dimethoxyquinolin-4-yl)oxy)-2-fluorophenyl)-3-(4-(piperidin-4-ylidenemethyl)-3-(trifluoromethoxy)phenyl)urea], the “fold improvement in P. falciparum blood stage potency on adding CF3 or OCF3” value in data set [1] is 2 fold.
In the case of `COc1cc2nccc(Oc3ccc(NC(=O)Nc4ccc(F)cc4F)c(F)c3)c2cc1OC` [Ki8751, reference compound], the “number of non-mutant kinases inhibited with ≤1% control” value in [5] came to 16. Besides, the “selectivity score S1 (1 μM)” value in [5] (KINOMEscan, 403 non-mutant kinases) came to 0.040. Besides, in data set [2] (setting [14]), the “group efficiency (GE) of the 7-methoxy group” value turned out to be 0.81 ± 0.04, the “group efficiency (GE) of the entire urea group” value stood at 0.39 ± 0.02 and the “group efficiency (GE) of the tail phenyl ring” value is recorded as over 0.41 ± 0.005.
